Like-named read-outs stand apart in the source and are kept apart here.
Biological target: T1, farnesyl protein transferase (FPT), partially purified from rat brain (Rattus norvegicus, UniProt Q02293+Q04631)
T1 construct: were partially purified from rat brain by ammonium sulfate fractionation followed by Q-Sepharose
Test: Inhibition of farnesyl protein transferase (transfer of [3H]farnesyl to Ras-CVLS)
Type: biochemical
Settings: for IC50: read-out: FPT IC50
Description: 1. In vitro enzyme assays: Inhibition of farnesyl protein transferase and geranylgeranyl protein transferase.
Human farnesyl protein transferase was also expressed in E. coli, using cDNA clones encoding both the α and β subunits. […] Human farnesyl protein transferase was partially-purified from the soluble protein fraction of E. coli as described above. […] Two forms of val^12-Ha-Ras protein were prepared as substrates for these enzymes, differing in their carboxy terminal sequence. One form terminated in cysteine-valine-leucine-serine (Ras-CVLS) the other in cystein-valine-leucine-leucine (Ras-CVLL). Ras-CVLS is a substrate for the farnesyl protein transferase while Ras-CVLL is a substrate for geranylgeranyl protein transferase I. The cDNAs encoding these proteins were constructed so that the proteins contain an amino-terminal extension of 6 histidine residues. Both proteins were expressed in Escherichia coli and purified using metal chelate affinity chromatography. The radiolabelled isoprenyl pyrophosphate substrates, [^3H]farnesyl pyrophosphate and [3H]geranylgeranyl pyrophosphate, were purchased from DuPont/New England Nuclear.
The reaction was allowed to proceed for 30 minutes at room temperature and then stopped with 0.5 ml of 4% sodium dodecyl sulfate (SDS) followed by 0.5 ml of cold 30% trichloracetic acid (TCA). Samples were allowed to sit on ice for 45 minutes and precipitated Ras protein was then collected on GF/C filter paper mats using a Brandel cell harvester. […] Percent inhibition was calculated relative to the DMSO vehicle control.

[1] = Ras-CVLS farnesylation, partially purified rat brain FPT

T1 sequence (Q02293 whole entry, one chain of several): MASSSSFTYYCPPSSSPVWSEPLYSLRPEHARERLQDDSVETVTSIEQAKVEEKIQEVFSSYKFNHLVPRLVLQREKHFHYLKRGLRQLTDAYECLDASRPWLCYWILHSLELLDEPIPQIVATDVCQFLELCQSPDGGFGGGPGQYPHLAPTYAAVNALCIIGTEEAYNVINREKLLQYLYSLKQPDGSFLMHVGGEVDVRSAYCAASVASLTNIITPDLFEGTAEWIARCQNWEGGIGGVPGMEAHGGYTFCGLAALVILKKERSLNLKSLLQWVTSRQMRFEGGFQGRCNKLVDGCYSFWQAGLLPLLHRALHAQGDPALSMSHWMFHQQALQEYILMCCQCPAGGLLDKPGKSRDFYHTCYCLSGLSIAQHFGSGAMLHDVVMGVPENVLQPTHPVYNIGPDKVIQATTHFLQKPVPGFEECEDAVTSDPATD

In the case of O=C(Cc1cc[n+]([O-])cc1)N1CCC(=C2c3ccc(Cl)cc3C=Cc3cccnc32)CC1 [Example 417-A], the IC50 (enzyme inhibition) is reported as 850 nM.

With O=C(c1c[nH]c2ccccc12)N1CCN(C2c3ccc(Cl)cc3CCc3cccnc32)CC1 (stereo not shown) [Example 368] the FPT inhibition (at 12 μM) was 14 @12 μM %.

NC(Cc1ccccc1)C(=O)N1CCN(C2c3ccc(Cl)cc3CCc3cccnc32)CC1 (stereo not shown) [Example 215] showed an FPT inhibition (at 13 μM) of 30% @.

In the case of CC(C)(C(=O)N1CCC(=C2c3ccc(Cl)cc3CCc3cc(F)cnc32)CC1)c1cc[n+]([O-])cc1 [Example 411-O], the “FPT inhibition at the concentration in parentheses” value ((4) μM) is reported as 39 (4) and the IC50 (enzyme inhibition) is reported as roughly 5000 nM.

CN1CCC(CC(=O)N2CCN([C@@H]3c4ccc(Cl)cc4CCc4cccnc43)CC2)CC1 [Example 425-M] gave an IC50 (enzyme inhibition) of 1800 nM.

With O=C(c1cc[n+]([O-])c2ccccc12)N1CCC(=C2c3ccc(Cl)cc3CCc3cccnc32)CC1 [Example 34] the IC50 [1] was 9800 nM.

CCc1cc2c(cc1Cl)C=Cc1cccnc1C2C1CCN(C(=O)Cc2ccncc2)CC1 (stereo not shown) [Example 362] was tested, and the IC50 [1] was 1160 nM.

In the case of NC1CCC(C(=O)N2CCC(=C3c4ccc(Cl)cc4CCc4cccnc43)CC2)CC1 (stereo not shown) [Example 105], the IC50 [1] is reported as 5000 nM.

Work on CNS(=O)(=O)c1ccc(C(=O)N2CCC(=C3c4ccc(Cl)cc4CCc4cccnc43)CC2)cc1 [Example 92] yielded an IC50 [1] of 3900 nM.

O=C(Nc1ccc[n+]([O-])c1)N1CCN(C2c3ccc(Cl)cc3CCc3cccnc32)CC1 (stereo not shown) [Example 427-A] gave an IC50 (enzyme inhibition) of 2200 nM.

In the case of CC(=O)N1CCC(=C2c3ccc(Cl)cc3CCc3cc(C(C)(C)C)c[n+]([O-])c32)CC1 [Example 133], the FPT inhibition (at 14.1 μM) is reported as 16% at 14.1 μM.

In the case of Cc1ccc2c(O)c(C(=O)N3CCC(=C4c5ccc(Cl)cc5CCc5cccnc54)CC3)cnc2n1 [Example 20], the IC50 [1] is reported as 5200 nM.

For CC(C)(C(=O)N1CCC(C2c3ccc(Cl)cc3C=Cc3cccnc32)CC1)c1cccnc1 (stereo not shown) [Example 268], the IC50 [1] was 1220 nM.

For NC(=O)N1CCCC(CC(=O)N2CCN(C3c4ccc(Cl)cc4CCc4cccnc43)CC2)C1 (stereo not shown) [Example 431-F], the IC50 (enzyme inhibition) was 1750 nM.

Work on O=C(Cc1ccncc1)N1CCC(=C2c3ccncc3CCc3cc(Cl)ccc32)CC1 [Example 5.39] yielded an IC50 [1] of 2300 nM.

In the case of CN1CCCC(CC(=O)N2CCN([C@@H]3c4ccc(Cl)cc4CCc4cccnc43)CC2)C1 (stereo partly shown) [Example 425-R], the IC50 (enzyme inhibition) is reported as 1700 nM.

O=C(Cc1cccnc1)N1CCC(=C2c3ccc(Cl)cc3CCc3cc(Cl)cnc32)CC1 [Example 411-T] gave an IC50 (enzyme inhibition) of 580 nM.

In the case of O=C(Nc1ccccc1)N1CCC(=C2c3ccc(Cl)cc3CCc3c(Cl)ccnc32)CC1 [Example 414-A], the IC50 (enzyme inhibition) is reported as 1900 nM.

Work on N#CCC(=O)N1CCC(=C2c3ccc(Cl)cc3CCc3cc(Br)cnc32)CC1 [Example 400-A] yielded an IC50 [1] of 2600 nM.

CN1CCCC(CC(=O)N2CCN([C@H]3c4ccc(Cl)cc4CCc4cccnc43)CC2)C1 (stereo partly shown) [Example 425-S] gave an IC50 (enzyme inhibition) of 600 nM.

CNC(=O)N1CCCC(CC(=O)N2CCN(C3c4ccc(Cl)cc4CCc4cccnc43)CC2)C1 (stereo not shown) [Example 431-G] gave an IC50 (enzyme inhibition) of 7000 nM.

CC(C)(C(=O)N1CCN(C2c3ccc(Cl)cc3CCc3cccnc32)CC1)c1cc[n+]([O-])cc1 (stereo not shown) [Example 425-A] gave an IC50 (enzyme inhibition) of 2200 nM.

CC(=O)N1CCC(=C2c3cc4ccccc4cc3CCc3cccnc32)CC1 [Example 71A] gave an IC50 [1] of 17600 nM.

Work on O=C(Cc1c(O)cccc1O)N1CCC(=C2c3ccc(Cl)cc3CCc3cccnc32)CC1 [Example 125] yielded an IC50 [1] of 10300 nM.

CC(C)(C)OC(=O)N[C@@H](Cc1ccccc1)C(=O)N1CCN(C2c3ccc(Cl)cc3CCc3cccnc32)CC1 (stereo partly shown) [Example 214] showed an FPT inhibition (at 10 μM) of 0% @.

With CCN1CCC(CC(=O)N2CCN(C3c4ccc(Cl)cc4CCc4cccnc43)CC2)CC1 (stereo not shown) [Example 429] the IC50 (enzyme inhibition) was 1270 nM.

CC1(C2CCN(C(=O)Cc3ccc[n+]([O-])c3)CC2)c2ccc(Cl)cc2CCc2cc(Br)cnc21 (stereo not shown) [Example 410-C] showed an IC50 [1] of 52 nM.

With CC(=O)N1CCCC(C(=O)N2CCN(C3c4ccc(Cl)cc4CCc4cccnc43)CC2)C1 (stereo not shown) [Example 194] the IC50 [1] was 4300 nM.

For O=C(Nc1cccnc1)N1CCN([C@@H]2c3ccc(Cl)cc3CCc3cccnc32)CC1 [224 (6.10)], the IC50 [1] was 3200 nM.

In the case of O=C(Cc1cc[nH]c(=O)c1)N1CCC(=C2c3ccc(Cl)cc3CCc3cc(Br)cnc32)CC1 [Example 411-EE], the “FPT inhibition at the concentration in parentheses” value ((3.3) μM) is reported as 10 (3.3).
